# Reference: patent US5486508A, “Cyclodextrin composition” (TAKEDA Chemical Industries Ltd., priority 1991, dated 1996)
# Read-outs that look alike come from different tables or passages of the source.
# Assays:
# [1] = Solubility of diazepam or clofibrate complex with G2 βCD versus drug alone
# Excerpt: The solubility of the complex was compared with that of the drug alone.
# [2] = water
# Experimental: (§1) The aqueous solution was added to the above ethyl alcohol solution with stirring. The solution thus obtained was lyophilized to obtain a powder.
# (§2) After 4 hours, the mixture was filtered through a filter having pore size of 0.22 μm.
# [3] = water; remark: listed apart in the source
# Experimental: as §1, §2
# [4] = Stability of powders at 40° C. for 2 weeks (residual amount of Compound A by HPLC); assay type: physicochemical; settings: powder storage, 336 h
# Experimental: The residual amounts of Compound A was determined by HPLC.
SMILES,solubility [1] [µg/mL],Comparison of solubilities (solubility concentration of Compound A) [2] [µg/mL],Comparison of solubilities (solubility concentration of Compound A) [3] [µg/mL],"Stability, Residual rate [4] [%]"
"CCOC(=O)C(C)(C)Oc1ccc(Cl)cc1 [Clofibrate, clofibrate]",36,–,–,–
"CO[C@@H]1[C@H](OC(=O)NC(=O)CCl)CC[C@]2(CO2)[C@H]1[C@@]1(C)O[C@@H]1CC=C(C)C [Compound A, 6-O-(N-chloroacetylcarbamoyl)fumagillol]",–,1700,1700,81.4
